Laboratory results reported in patent publication US20090074886A1, “GSK-3 INHIBITORS” (Novartis Vaccines and Diagnostics Inc., priority 2003, published 2009).

How the values were obtained:
ST2 cells = assay: Osteogenesis of multipotential ST2 cells, Alizarin Red-S staining for mineralization; format: cell-based; settings: 3 μM on days 0 and 2 vs DMSO control; Alizarin Red-S stain on day 10; FIG. 1B
Method: FIG. 1B. Multipotential ST2 cells were induced to undergo osteogenesis as described (Hankenson and Bornstein 2002). On days 0 and 2, cells were treated with DMSO (control) or 3 μM CHIR99021 6-[(2-{[4-(2,4-dichlorophenyl)-5-(4-methylimidazol-2-yl)pyrimidin-2-yl]amino}ethyl)amino]pyridine-3-carbonitrile (Chiron Corporation, Emeryville, Calif.). On day 10, cells were stained with Alizarin Red-S for mineralization.

3T3-L1 preadipocyes = settings: cited from earlier work

Cc1c[nH]c(-c2cnc(NCCNc3ccc(C#N)cn3)nc2-c2ccc(Cl)cc2Cl)n1 [CHIR99021, 6-[(2-{[4-(2,4-dichlorophenyl)-5-(4-methylimidazol-2-yl)pyrimidin-2-yl]amino}ethyl)amino]pyridine-3-carbonitrile]
osteoblastogenesis and mineralization of bipotential ST2 cells (ST2 cells): increases osteoblastogenesis and mineralization | Wnt signaling in vitro (3T3-L1 preadipocyes): mimic Wnt signaling | adipocyte conversion (3T3-L1 preadipocyes; in vitro): blocking adipocyte conversion
